Legend:
[1] = particle density of the crystal forms (Ultrapyknometer, or from single crystal X-ray structural analysis); assay type: physicochemical; details: for Density, calculated from SCA: calculated from single crystal X-ray structural analysis (SCA); for Density, experimental: method SOP 5024, Ultrapyknometer 1000 T
Method: A DSC Pyris 1 from Perkin Elmer was used to determine the melting points. The measurements were carried out using a heating rate of 10 K min^−1. In each case, the given melting points refer to the peak maximum under the given conditions. The Raman spectra of the crystal forms were recorded using an RFS 100/S FT-Raman from Bruker (128 scans per measurement). The particle density was determined experimentally according to method SOP 5024 for determining densities using the Ultrapyknometer 1000 T from Quanta-Chrome or theoretically from the single crystal. X-ray structural analysis (SCA). The single crystal X-ray structural analysis was carried out using a P4RA four-cycle diffractometer from Siemens with rotating anode generator, graphite monochromator, scintillation counter and low-temperature unit. Measurement was carried out using molybdenum radiation of a wavelength of 0.71073 (MoKα).

[2] = thermodynamic stability of the crystal forms; details: for thermodynamic stability of the crystal form: at room temperature

Row | SMILES | Density, calculated from SCA [1] [Mg/m^3] | Density, experimental [1] [Mg/m^3] | thermodynamic stability of the crystal form [2] | temperature below which the crystal form is stable ([2]; pressure of 1013 mbar)
1 | OC(Cc1ccccc1Cl)(Cn1nc[nH]c1=S)C1(Cl)CC1 (stereo not shown) [form I, 2-[2-(1-chlorocyclopropyl)-3-(2-chlorophenyl)-2-hydroxypropyl]-2,4-dihydro-3H-1,2,4-triazole-3-thione, reference compound] | 1.432 | 1.39 | metastable | –
2 | OC(Cc1ccccc1Cl)(Cn1nc[nH]c1=S)C1(Cl)CC1 (stereo not shown) [form II, 2-[2-(1-chlorocyclopropyl)-3-(2-chlorophenyl)-2-hydroxypropyl]-2,4-dihydro-3H-1,2,4-triazole-3-thione] | 1.471 | 1.43 | thermodynamically stable | below 90 °C
